According to PMC11280475, “Investigation of Stabilized Amorphous Solid Dispersions to Improve Oral Olaparib Absorption” (Pharmaceutics, 2024):
Values after ≈ are worked out from the molar mass of the structure shown. Where two headings read alike, the source gives them in different places.

Legend:
[1] = In vivo pharmacokinetic study after oral administration; parameters: species or system Sprague Dawley (SD) rats; details: rats, 20 mg/kg; for AUC(0-t): read-out: AUC0–24
Description: Male Sprague Dawley (SD) rats (age: 9–10 weeks, weight: 250 ± 20 g) for the in vivo pharmacokinetic study of OLA-SD were purchased from Koatech Co. (Pyeongtaek, Republic of Korea). The rats were acclimatized to standard laboratory conditions (average temperature of 25 ± 2 °C and a 12/12 h light/dark cycle) for one week before the experiment, with unrestricted access to food and drinking water ad libitum. The Institutional Animal Care and Use Committee (IACUC) of Gyeongsang National University (Approval No. GNU-240228-R0049) approved the animal study protocol in accordance with NIH policies and the Animal Welfare Act. The SD rats were randomly divided into four groups, each consisting of six rats. Each rat was anesthetized, and the right femoral artery was cannulated using a polyethylene tube. Crystalline OLA, amorphous OLA, Kollidon VA64-based OLA-SD (F1), and HPMC P645-based OLA-SD (F3) were dispersed in 1 mL of 0.5% carboxymethyl cellulose and administered orally to the rats at a dose of 20 mg/kg. Blood (350 μL) was collected through the cannulated tube at 0.25, 0.5, 1, 2, 3, 6, 9, 12, and 24 h and immediately centrifuged at 13,500 rpm for 15 min at 4 °C. Subsequently, plasma was separated from the supernatant and stored at −20 °C until quantitative analysis. To analyze the plasma samples, 50 μL of internal standard solution (canagliflozin 20 μg/mL in acetonitrile) and 300 μL of acetonitrile were added to 150 μL of plasma. The samples were then mixed in a vortex blender for 3 min for deproteinization and drug extraction. Subsequently, the samples were centrifuged at 13,500 rpm for 15 min at 4 °C. The supernatant was filtered using a 0.2 μm filter and transferred to analytical vials for HPLC analysis. The concentration of OLA in plasma was analyzed using the second HPLC conditions mentioned in Section 2.2. Pharmacokinetic parameters calculated using non-compartmental analysis included the area under the plasma concentration–time curve from 0 to 24 h (AUC0–24), the maximum plasma concentration (Cmax), the time to reach maximum plasma concentration (Tmax), the elimination rate constant (Kel), the half-life (T1/2), and the mean residence time (MRT).
The formula for calculating AUC is as follows: AUC=∑i=1n−1(Ci+Ci+1)/2×[…] where Ci and Ci+1 are the concentration of the drug at consecutive time points, ti and ti+1 are the corresponding time points, and n is the number of measured data points.
The formula for calculating Cmax is as follows: Cmax=max(Ct) where Ct is the concentration of the drug at time t.
The formula for calculating Tmax is Tmax=t at which Ct is maximal
The formula for calculating Kel is […] where C1 and C2 are the concentration of the drug at two consecutive time points during the elimination phase, and t1 and t2 are the corresponding time points.
The formula for calculating T1/2 is T1/2=ln2/Kel where Kel is the elimination rate constant.
The formula for calculating MRT is MRT=AUMC/AUC where AUMC is the area under the moment curve and AUC is the area under the curve.

[2] = In vitro dissolution test (USP apparatus II); format: physicochemical; details: 300 mL, 37 °C, 50 rpm, 150 mg OLA equivalent
Description: To assess the in vitro release of OLA from the solid dispersions, a dissolution test was performed under conditions similar to those described in Section 2.3. Briefly, the dissolution media were adjusted to pH 1.2 and pH 6.8 (300 mL each), with the temperature maintained at 37 ± 0.5 °C, and the test was conducted at a paddle speed of 50 rpm. Each sample of the OLA-SD, equivalent to 150 mg of OLA, was immersed in the dissolution media. Additionally, to examine the effect of polymers in the solid dispersion, a parallel dissolution test was conducted with 150 mg each of crystalline OLA and amorphous OLA. As mentioned, the solution was sampled at predetermined times (1, 6, 12, 18, 24, 48, and 72 h) and the concentration of OLA was assessed using an HPLC system. Additionally, after the kinetic dissolution tests in the pH 1.2 solution, the solution was centrifuged, the supernatant was removed, and the remaining OLA-SD residue was dried overnight for 12 h. The crystallinity state of the dried OLA-SD was examined using an X-ray diffractometer. The detailed method is described in Section 2.6.3.

[3] = Kinetic solubility of OLA in 1% (w/v) polymer solutions; format: physicochemical; details: thermodynamic from solid, amorphous OLA
Description: (§1) The polymers used to select the appropriate polymer for OLA-SD were chosen from those widely utilized in solid dispersions. To select the polymers for the solid dispersion system, the solubility of OLA in 1% (w/v) polymer solutions was assessed. Initially, 10 mg of crystalline OLA was added to 1 mL of each polymer solution, vortexed for 10 min, and then shaken at 100 rpm in a 37 °C water bath for 72 h. This process followed the saturation solubility evaluation method described in Section 2.3. Subsequently, to evaluate the kinetic solubility of OLA, both crystalline and amorphous forms, totaling 10 mg, were added to 10 mL of the selected polymer solutions, based on the results of the OLA saturation solubility tests. After vortexing for 10 min, the samples were shaken under the same conditions. During this 72 h period, samples were collected at predetermined intervals of 1, 6, 12, 24, 48, and 72 h, and the concentration of OLA was measured through HPLC analysis.

[4] = Saturation solubility of OLA in aqueous solutions; format: physicochemical; details: pH 1.2, pH 4.0, pH 6.8, regardless of pH, 37 °C
Description: The solubility of OLA was evaluated in distilled water (D.W.), pH 1.2, pH 4.0, and pH 6.8 solutions. The pH 1.2 solution was prepared using 0.1 M hydrochloric acid and sodium chloride, while the pH 4.0 solution utilized a 0.05 M sodium acetate buffer solution, and the pH 6.8 solution was made by combining a 0.2 M potassium dihydrogen phosphate solution with a 0.2 M sodium hydroxide solution. To determine the saturation solubility, an excess amount of both crystalline OLA and amorphous OLA, totaling 10 mg each, was added to 1 mL of each solution. The mixtures were vortexed for 10 min and then shaken at 100 rpm in a 37 °C water bath for 72 h. After centrifugation at 13,500 rpm for 10 min, the supernatant was filtered through a 0.45 μm syringe filter to remove insoluble OLA. The resultant solution was diluted tenfold with the HPLC mobile phase, and the concentration of OLA in each solution was measured using the HPLC system mentioned in Section 2.2. Subsequently, to assess the kinetic solubility of OLA, a dissolution test was conducted using 150 mg of both crystalline and amorphous OLA in 900 mL of each aforementioned solution. […] Samples (3 mL) were taken at predetermined times (0.5, 1, 2, 3, 4, 6, 12 h), filtered through a 0.45 μm syringe filter, diluted tenfold with the HPLC mobile phase, and analyzed using the same HPLC system. […]

[5] = cited from earlier work
[6] = Saturation solubility of crystalline OLA in 1% (w/v) polymer solutions; format: physicochemical; details: 37 °C
Description: as §1

[7] = male, Sprague Dawley, rat, plasma, po, mean ± S.D. (n = 6)

O=C(c1cc(Cc2n[nH]c(=O)c3ccccc23)ccc1F)N1CCN(C(=O)C2CC2)CC1 [Amorphous OLA, olaparib]
AUC0–24 [1]: 471 ± 150 ng·h/mL | Cmax [1]: 415 ± 148 ng/mL | increase of AUC0–24 over crystalline OLA ([1]; compared to crystalline OLA): 1.27 fold | increase of Cmax over crystalline OLA ([1]; compared to crystalline OLA): 2.22 fold | AUC0–24 ([1]; mean ± S.D. (n = 6)): 471.40 ± 150.17 ng·h/mL | Cmax ([1]; mean ± S.D. (n = 6)): 415.24 ± 148.20 ng/mL | Kel ([1]; mean ± S.D. (n = 6)): 0.20 ± 0.05 h⁻¹ | MRT ([1]; mean ± S.D. (n = 6)): 4.28 ± 4.52 h | T1/2 ([1]; mean ± S.D. (n = 6)): 3.68 ± 1.04 h | Tmax ([1]; mean ± S.D. (n = 6)): 0.29 ± 0.10 h | dissolution rate ([2]; pH 1.2, 1 h): 43.4 ± 3.3% | dissolution rate ([2]; pH 1.2, 72 h): 28.2 ± 3.9% | dissolution rate ([2]; pH 6.8, 1 h): 44.6 ± 3.1% | dissolution rate ([2]; pH 6.8, 72 h): 27.0 ± 3.0% | solubility kinetic at 1 h ([3]; 1% (w/v) HP-β-CD solution, aqueous with cosolvent or surfactant or cyclodextrin, 1% (w/v) HP-β-CD, 37 °C, read-out: kinetic solubility in HP-β-CD at 1 h): 337 ± 29.7 µg/mL (≈ 775 µM) | solubility kinetic at 72 h ([3]; 1% (w/v) HP-β-CD solution, aqueous with cosolvent or surfactant or cyclodextrin, 1% (w/v) HP-β-CD, 37 °C, read-out: kinetic solubility in HP-β-CD at 72 h): 398 ± 10.9 µg/mL (≈ 916 µM) | solubility kinetic at 1 h ([3]; 1% (w/v) HPMC P645 solution, 1% (w/v) HPMC P645, 37 °C, read-out: kinetic solubility in HPMC P645 at 1 h): 247 ± 43.6 µg/mL (≈ 569 µM) | solubility kinetic at 72 h ([3]; 1% (w/v) HPMC P645 solution, 1% (w/v) HPMC P645, 37 °C, read-out: kinetic solubility in HPMC P645 at 72 h): 353 ± 44.2 µg/mL (≈ 813 µM) | solubility kinetic at 1 h ([3]; 1% (w/v) Kollidon VA64 solution, 1% (w/v) Kollidon VA64, 37 °C, read-out: kinetic solubility in Kollidon VA64 at 1 h): 593 ± 72.9 µg/mL (≈ 1360 µM) | solubility kinetic at 72 h ([3]; 1% (w/v) Kollidon VA64 solution, 1% (w/v) Kollidon VA64, 37 °C, read-out: kinetic solubility in Kollidon VA64 at 72 h): 343 ± 6.5 µg/mL (≈ 790 µM) | saturation solubility ([4]; 72 h): around 100 µg/mL

O=C(c1cc(Cc2n[nH]c(=O)c3ccccc23)ccc1F)N1CCN(C(=O)C2CC2)CC1 [Crystalline OLA, olaparib]
half-life [1, 7]: 4.18 ± 2.27 h | k el [1, 7]: 5.28e-05 s⁻¹ | AUC(0-t) [1, 7]: 370 ± 63.8 ng·h/mL | MRT ([1]; male, Sprague Dawley, rat, plasma, po, mean ± S.D. (n = 6), read-out: MRT): 2.97 ± 0.69 h | AUC(0-t) ([1]; male, Sprague Dawley, rat, plasma, po): 370 ± 63.8 ng·h/mL | Cmax [1]: 187 ± 82.5 ng/mL | Cmax ([1]; mean ± S.D. (n = 6)): 187.31 ± 82.55 ng/mL | Tmax ([1]; mean ± S.D. (n = 6)): 0.63 ± 0.31 h | solubility in aqueous solution ([5]; aqueous solution): approximately 0.1 mg/mL | basic pKa [5]: −1.25 | Biopharmaceutics Classification System (BCS) class ([5]; low solubility and low permeability): class IV | solubility at 72 h ([4]; aqueous pH solutions): ~100 µg/mL (≈ 230 µM) | solubility at 72 h ([6]; crystalline OLA in 1% (w/v) HP-β-CD solution, read-out: saturation solubility in HP-β-CD): ~180 µg/mL (≈ 414 µM) | solubility at 72 h ([6]; crystalline OLA in 1% (w/v) polymer solutions other than HP-β-CD, read-out: saturation solubility in most other polymer solutions): < 150 µg/mL
